# Test results published in ChEMBL document CHEMBL3045086, “Two-dimensional quantitative structureactivity relationship study on polyphenols as inhibitors of -glucosidase” (Med Chem Res, 2012).
# Target: Alpha-glucosidase MAL62 (Saccharomyces cerevisiae) (UniProt P07265)
# Assay: Inhibition of baker's yeast alpha-glucosidase using p-nitrophenyl-alpha-D-glucopyranoside as substrate by spectrophotometry
# Sequence of Alpha-glucosidase MAL62 (Saccharomyces cerevisiae) (P07265 whole entry): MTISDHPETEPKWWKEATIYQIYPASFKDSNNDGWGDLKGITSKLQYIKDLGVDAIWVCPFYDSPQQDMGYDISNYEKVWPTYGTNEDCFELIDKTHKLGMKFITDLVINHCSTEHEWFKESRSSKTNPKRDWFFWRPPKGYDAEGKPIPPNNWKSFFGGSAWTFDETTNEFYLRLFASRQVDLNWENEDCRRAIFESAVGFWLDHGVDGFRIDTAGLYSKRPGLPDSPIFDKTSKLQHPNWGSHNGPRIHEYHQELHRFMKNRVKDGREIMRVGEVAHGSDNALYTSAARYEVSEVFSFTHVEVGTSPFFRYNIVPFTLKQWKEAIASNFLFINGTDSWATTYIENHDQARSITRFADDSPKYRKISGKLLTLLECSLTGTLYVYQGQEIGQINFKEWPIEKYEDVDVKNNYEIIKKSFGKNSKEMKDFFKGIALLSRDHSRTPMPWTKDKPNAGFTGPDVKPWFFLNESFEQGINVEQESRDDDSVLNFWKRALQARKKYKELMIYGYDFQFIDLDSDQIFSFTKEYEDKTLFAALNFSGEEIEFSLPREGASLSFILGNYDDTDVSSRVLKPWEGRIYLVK
row,Structure (SMILES),logIC50
1,O=c1c(O)c(-c2ccc(O)cc2)oc2cc(O)cc(O)c12,1.08
2,OC[C@H]1OC(OC2=C(c3ccc(O)c(O)c3)Oc3cc(O)cc(O)c3C2)[C@@H](O)[C@@H](O)[C@@H]1O (some centres undefined),1.3
3,O=C(OC1Cc2c(O)cc(O)cc2OC1c1cc(O)c(O)c(O)c1)c1cc(O)c(O)c(O)c1 (centres undefined),0.301
4,COC(=O)c1cc(O)c(O)c(O)c1,1.06
5,O=C(O)/C=C/c1ccc(Cl)cc1,2.59
6,Oc1cc(O)c2c(c1)OC(c1cc(O)c(O)c(O)c1)C(O)C2 (centres undefined),1.88
7,COc1cc(O)c(C(C)=C(C)C)c2c1C(=O)CC(c1ccc(O)cc1)O2 (centres undefined),2.55
8,C=C(C)C(CC=C(C)C)Cc1c(O)cc(OC)c2c1OC(c1ccc(OC)cc1O)CC2=O (centres undefined),2.19
9,O=c1c(-c2ccc(O)cc2)coc2cc(O)cc(O)c12,0.845
10,O=c1cc(-c2ccc(O)c(O)c2)oc2cc(O)cc(O)c12,1.32
11,C=CC(C)(C)c1c(O)cc(O)c2c(=O)c3oc4c(CC=C(C)C)c(O)c(OCC=C(C)C)cc4c3oc12,1.52
12,O=C(O)/C=C/c1cccc(O)c1,3.1
13,O=c1c(O)c(-c2ccc(O)c(O)c2)oc2cc(O)ccc12,1.11
14,OC[C@H]1OC(OC2=C(c3cc(O)c(O)c(O)c3)Oc3cc(O)cc(O)c3C2)[C@@H](O)[C@@H](O)[C@@H]1O (some centres undefined),1.48
15,O=C1C[C@@H](c2ccc(O)cc2)Oc2cc(O)cc(O)c21,1.88
16,O=C(O)/C=C/c1ccc(Oc2ccccc2)cc1,2.64
17,C=C(C)C(CC=C(C)C)Cc1c(O)cc(OC)c2c1OC(c1ccc(O)cc1O)CC2=O (centres undefined),1.83
18,O=C(O)/C=C/c1ccc(O)cc1,2.3
19,CC(C)=CCc1cc(C2CCc3ccc(O)cc3O2)c(CC=C(C)C)c(O)c1O (centres undefined),1.08
20,COc1ccc([C@@H]2CC(=O)c3c(O)cc(O)cc3O2)cc1O,2.18
21,C=CC(C)(C)c1cc2c(cc1O)OC(c1cc(O)c(O)c(CC=C(C)C)c1C/C=C\C)CC2 (centres undefined),1.02
22,CC(C)=CCc1cc(C(=O)/C=C/c2ccc(O)cc2)c(O)cc1O,1.04

row,Structure (SMILES),logIC50
1,C=CC(C)(C)c1c(O)cc(O)c2c(=O)c3oc4c5c(c(OCC=C(C)C)cc4c3oc12)OC(C)(C)C=C5,1.44
2,O=c1c(O)c(-c2cc(O)c(O)c(O)c2)oc2cc(O)cc(O)c12,0.699
3,C=C(C)C(CC=C(C)C)Cc1c(O)cc(O)c2c1OC(c1ccccc1O)CC2=O (centres undefined),1.65
4,C=C(C)C(CCC(C)(C)O)Cc1c(O)cc(OC)c2c1OC(c1ccc(O)cc1O)CC2=O (centres undefined),2.25
5,C=C(C)C(CC=C(C)C)Cc1c(O)cc(O)c2c1OC(c1ccc(O)cc1O)CC2=O (centres undefined),1.57
6,Oc1cc(O)c2cc(O)c(-c3ccc(O)c(O)c3)[o+]c2c1,0.602
7,O=c1c(O)c(-c2ccc(O)c(O)c2)oc2cc(O)cc(O)c12,0.845
8,CC1(C)C=Cc2cc(C(=O)/C=C/c3ccc(O)c(O)c3)c(O)cc2O1,1.28
9,O=c1c(O)c(-c2ccc(O)cc2O)oc2cc(O)cc(O)c12,1.6
10,CC(C)=CCc1c(C2CCc3ccc(O)cc3O2)cc2c(c1O)OC(C)(C)C=C2 (centres undefined),1.42
11,CCOC(=O)/C=C/c1ccc(OC)cc1,1.7
12,O=C(O)/C=C/c1ccc(F)cc1,2.43
13,CC(C)=CCc1cc(C2CCc3ccc(O)cc3O2)cc(O)c1O (centres undefined),1.88
14,Oc1cc(O)c2c(c1)OC(c1ccc(O)c(O)c1)C(O)C2 (centres undefined),2.11
15,O=C(O)c1cc(O)c(O)c(O)c1,0.716
16,C=CC(C)(C)c1c(O)cc(O)c2c(=O)c(O)c(-c3cc(O)c(O)c(CC=C(C)C)c3)oc12,0.556
17,CC(C)=CCc1cc(C(=O)/C=C/c2ccc(O)c(O)c2)c(O)cc1O,0.724
18,O=c1c(-c2ccc(O)cc2)coc2cc(O)ccc12,1.15
19,CC(C)=CCc1cc(-c2oc3cc(O)c(CC=C(C)C)c(O)c3c(=O)c2O)cc(O)c1O,0.322
20,CC1(C)C=Cc2cc(C(=O)/C=C/c3ccc(O)cc3)c(O)cc2O1,1.09
21,COc1cccc(/C=C/C(=O)O)c1,2.76
22,COc1ccc(/C=C/C(=O)O)cc1,1.6
